± gives the expanded uncertainty stated by the source.

The conditions of series [1]: Adiabatic calorimetry.
Series [2] is described as follows: Molar enthalpy of transition or fusion. To be noted: Adiabatic calorimetry.

With `C1CCCCC1` [cyclohexane], the Triple point temperature was 186.18 ± 0.049 K in series [1] (Crystal 2) and 279.86 ± 0.066 K in series [1] (Crystal). The figures for the “Molar enthalpy of transition or fusion” value in series [2] (Crystal 2) and in series [2] (Crystal) were 1.61 ± 0.0163 kcal/mol and 0.642 ± 0.0129 kcal/mol, respectively.

(Values after the NIST ThermoML archive (doi:10.1016/j.tca.2013.05.039).)
